Assay results from ChEMBL document CHEMBL1128212, “Synthesis and biological evaluation of substituted flavones as gastroprotective agents” (1995).

Assays:
Rattus norvegicus [1] = test: Percent protection from gastric damage in rats relative to vehicle control following intraperitoneal administration of 20 mg/Kg; type: functional, Stomach
Rattus norvegicus [2] = test: Compound was evaluated for its effect on rat liver microsomal EROD(7-ethoxyresorufin O-dealkylase) by the change in its concentration at a dose of 100 mg/kg; type: functional, organism-based; set-up: dose 100 mg/kg
Rattus norvegicus [3] = test: Compound was evaluated for its effect on rat liver microsomal NADPH-[…] c reductase by the change in its concentration at a dose of 100 mg/kg; type: functional, organism-based; set-up: dose 100 mg/kg
Rattus norvegicus [4] = test: Compound was evaluated for its effect on rat liver microsomal cytochrome b5 by the change in its concentration at a dose of 100 mg/kg; type: functional, organism-based; set-up: dose 100 mg/kg
Rattus norvegicus [5] = test: Compound was evaluated for its effect on rat liver microsomal cytochrome P450 by the change in its concentration at a dose of 100 mg/kg; type: functional, organism-based; set-up: dose 100 mg/kg
Rattus norvegicus [6] = species: Rattus norvegicus; test: The dose required to produce a 50% gastroprotection level relative to control; type: functional
Rattus norvegicus [7] = test: Compound was evaluated for its effect on rat liver microsomal EROD(7-ethoxyresorufin O-dealkylase) by the change in its concentration at a dose of 250 mg/kg; type: functional, organism-based; set-up: dose 250 mg/kg
Rattus norvegicus [8] = test: Compound was evaluated for its effect on rat liver microsomal NADPH-[…] c reductase by the change in its concentration at a dose of 250 mg/kg; type: functional, organism-based; set-up: dose 250 mg/kg
Rattus norvegicus [9] = test: Compound was evaluated for its effect on rat liver microsomal cytochrome P450 by the change in its concentration at a dose of 250 mg/kg; type: functional, organism-based; set-up: dose 250 mg/kg
Rattus norvegicus [10] = test: Compound was evaluated for its effect on rat liver microsomal cytochrome b5 by the change in its concentration at a dose of 250 mg/kg; type: functional, organism-based; set-up: dose 250 mg/kg
Rattus norvegicus [11] = test: Compound was evaluated for its effect on rat liver microsomal EROD(7-ethoxyresorufin O-dealkylase) by the change in its concentration at a dose of 268 mg/kg; type: functional, organism-based; set-up: dose 268 mg/kg
Rattus norvegicus [12] = test: Compound was evaluated for its effect on rat liver microsomal NADPH-[…] c reductase by the change in its concentration at a dose of 268 mg/kg; type: functional, organism-based; set-up: dose 268 mg/kg
Rattus norvegicus [13] = test: Compound was evaluated for its effect on rat liver microsomal cytochrome P450 by the change in its concentration at a dose of 268 mg/kg; type: functional, organism-based; set-up: dose 268 mg/kg
Rattus norvegicus [14] = test: Compound was evaluated for its effect on rat liver microsomal cytochrome b5 by the change in its concentration at a dose of 268 mg/kg; type: functional, organism-based; set-up: dose 268 mg/kg
Rattus norvegicus [15] = test: Gastroprotection percentage taken from rat indomethacin damage model at a dose 30 mg/kg administered orally; type: functional; details: route oral
Rattus norvegicus [16] = test: Gastroprotection percentage taken from rat indomethacin damage model at a dose 0.25 mg/kg administered orally; type: functional; details: route oral

Cc1cccc2oc(-c3ccccc3)cc(=O)c12
Protection (Rattus norvegicus [1]): 52%

O=c1cc(-c2ccccc2)oc2ccc3ccccc3c12
Concentration (nM min-1 (mg of protein)-1) (Rattus norvegicus [2]): 5010
Concentration (nM min-1 (mg of protein)-1) (Rattus norvegicus [3]): 166
Concentration (nM min-1 (mg of protein)-1) (Rattus norvegicus [4]): 0.79
Concentration (nM min-1 (mg of protein)-1) (Rattus norvegicus [5]): 2.02

COc1cccc2oc(-c3ccccc3Cl)cc(=O)c12
Protection (Rattus norvegicus [1]): 89%

COc1cccc2oc(-c3ccc(C(F)(F)F)cc3)cc(=O)c12
Protection (Rattus norvegicus [1]): 65%

O=c1cc(-c2ccccc2)oc2c(O)cccc12
Protection (Rattus norvegicus [1]): 46%

O=c1cc(-c2ccccc2)oc2ccccc12 [FLAVONE]
ED50 (Rattus norvegicus [6]): 6.9 mg/kg
Protection (Rattus norvegicus [1]): 93%

CCOc1ccc2c(=O)cc(-c3ccccc3)oc2c1
Protection (Rattus norvegicus [1]): 87%

Cc1ccc2c(=O)cc(-c3ccccc3)oc2c1 [7-METHYLFLAVONE]
ED50 (Rattus norvegicus [6]): 5.6 mg/kg
Protection (Rattus norvegicus [1]): 90%

CN/C(=N\CCSCc1nc[nH]c1C)NC#N [CIMETIDINE]
Protection (Rattus norvegicus [1]): 14%

COc1ccc2c(=O)cc(-c3ccccc3)oc2c1 [7-METHOXYFLAVONE]
Concentration (nM min-1 (mg of protein)-1) (Rattus norvegicus [7]): 442
Concentration (nM min-1 (mg of protein)-1) (Rattus norvegicus [8]): 339
Concentration (nM min-1 (mg of protein)-1) (Rattus norvegicus [9]): 1.42
Concentration (nM min-1 (mg of protein)-1) (Rattus norvegicus [10]): 0.73
ED50 (Rattus norvegicus [6]): 5.9 mg/kg
Protection (Rattus norvegicus [1]): 89%

C=CCOc1cccc2oc(-c3ccccc3)cc(=O)c12
Protection (Rattus norvegicus [1]): 57%

Cc1ccc(-c2cc(=O)c3ccccc3o2)cc1
Protection (Rattus norvegicus [1]): 68%

CCOc1cccc2oc(-c3ccccc3)cc(=O)c12
Protection (Rattus norvegicus [1]): 36%

COc1cccc2oc(-c3ccc(C)cc3)cc(=O)c12
Protection (Rattus norvegicus [1]): 93%

COc1cccc2oc(-c3ccc([N+](=O)[O-])cc3)cc(=O)c12
Protection (Rattus norvegicus [1]): 52%

O=c1cc(-c2ccc(O)cc2)oc2ccccc12
Protection (Rattus norvegicus [1]): 63%

O=c1cc(-c2cccc(O)c2)oc2ccccc12
Protection (Rattus norvegicus [1]): 71%

O=c1c(O)c(-c2ccccc2)oc2ccccc12 [FLAVONOL]
Protection (Rattus norvegicus [1]): 47%

COc1ccc2oc(-c3ccccc3)cc(=O)c2c1 [6-METHOXYFLAVONE]
Protection (Rattus norvegicus [1]): 29%

COc1cccc(-c2cc(=O)c3ccccc3o2)c1
Protection (Rattus norvegicus [1]): 48%

O=c1cc(-c2ccccc2)oc2ccc(O)cc12 [6-HYDROXYFLAVONE]
Protection (Rattus norvegicus [1]): 57%

O=c1cc(-c2ccccc2O)oc2ccccc12
ED50 (Rattus norvegicus [6]): 15.6 mg/kg
Protection (Rattus norvegicus [1]): 78%

COc1cccc2oc(-c3ccc(F)cc3)cc(=O)c12
Concentration (nM min-1 (mg of protein)-1) (Rattus norvegicus [11]): 1110
Concentration (nM min-1 (mg of protein)-1) (Rattus norvegicus [12]): 275
Concentration (nM min-1 (mg of protein)-1) (Rattus norvegicus [13]): 1.17
Concentration (nM min-1 (mg of protein)-1) (Rattus norvegicus [14]): 0.65
ED50 (Rattus norvegicus [6]): 5.5 mg/kg
Protection (Rattus norvegicus [15]): 76%
Protection (Rattus norvegicus [1]): 97%

COc1ccc2c(=O)cc(-c3cccc(C(F)(F)F)c3)oc2c1
Protection (Rattus norvegicus [1]): 67%

COc1ccc2c(=O)cc(-c3ccc(F)cc3)oc2c1
ED50 (Rattus norvegicus [6]): 8.9 mg/kg
Protection (Rattus norvegicus [1]): 67%

COc1cccc2oc(-c3ccc(Cl)cc3)cc(=O)c12
Protection (Rattus norvegicus [1]): 94%

COc1ccccc1-c1cc(=O)c2ccccc2o1
ED50 (Rattus norvegicus [6]): 22.4 mg/kg
Protection (Rattus norvegicus [1]): 66%

COc1ccc(-c2cc(=O)c3ccccc3o2)cc1 [4'-METHOXYFLAVONE]
Protection (Rattus norvegicus [1]): 21%

COc1cccc2oc(-c3cccc(C(F)(F)F)c3)cc(=O)c12
ED50 (Rattus norvegicus [6]): 3.3 mg/kg
Protection (Rattus norvegicus [1]): 90%

O=c1cc(-c2ccccc2)oc2cccc(O)c12 [5-HYDROXYFLAVONE]
Protection (Rattus norvegicus [1]): 58%

COc1ccc2c(=O)cc(-c3ccccc3Cl)oc2c1
Protection (Rattus norvegicus [1]): 80%

COc1ccc(-c2cc(=O)c3c(OC)cccc3o2)cc1
Protection (Rattus norvegicus [1]): 33%

CCCCC[C@H](O)/C=C/[C@H]1[C@H](O)CC(=O)[C@@H]1C/C=C\CCCC(=O)O [DINOPROSTONE]
Protection (Rattus norvegicus [16]): 61%
Protection (Rattus norvegicus [1]): 82%

COc1cccc2oc(-c3ccccc3)cc(=O)c12
ED50 (Rattus norvegicus [6]): 2.6 mg/kg
Protection (Rattus norvegicus [1]): 97%

O=c1cc(-c2ccccc2)oc2cc(O)ccc12 [7-HYDROXYFLAVONE]
Protection (Rattus norvegicus [1]): 75%

CCCCOc1cccc2oc(-c3ccccc3)cc(=O)c12
Protection (Rattus norvegicus [1]): 75%

COc1c(-c2ccccc2)oc2ccccc2c1=O
Protection (Rattus norvegicus [1]): 41%

Cc1ccccc1-c1cc(=O)c2ccccc2o1
Protection (Rattus norvegicus [1]): 92%

COc1cccc2c(=O)cc(-c3ccccc3)oc12 [8-METHOXYFLAVONE]
Protection (Rattus norvegicus [1]): 53%
